# From PMC12040169 (PLOS Biology, 2025)
# Experiment: in vitro
# Settings: human, hela cells, % viability
row,SMILES,"viability at 28.5 h, 10 µM [%]"
1,CCC1CN(C(C)=O)CCC1NCc1ccc(OCC(N)=O)cc1 (centres unmarked) [CBK305168],102
2,CC1CCC(N(Cc2nnc(C(C)C)o2)CC2CCCO2)CC1 (centres unmarked) [CBK305169],89.7
3,CN(C(=O)Cn1cccn1)c1nc2c(s1)CC(c1ccccc1)CC2 (centres unmarked) [CBK305173],102
4,Cc1nn(C)c2ncc(S(=O)(=O)Nc3ccc(F)cn3)cc12 [CBK305175],95.1
5,CCC(C)N(C)CCNC(=O)Nc1ccc(F)c(-n2nnnc2C)c1 (centres unmarked) [CBK305176],101
6,Cn1cc(N2CCCC(NC(=O)Nc3cccc(C#N)c3)C2)cn1 (centres unmarked) [CBK305179],91.3
7,c1cn2cnnc2c(N2CCc3sccc3C2)n1 [CBK305180],96.6
8,Cc1ccccc1Nc1nc(N)nc(CN2CCOC3CCCC32)n1 (centres unmarked) [CBK305181],97.6
9,Cn1cc(N2CCC(NC(=O)c3ccc(C#N)cc3)C2=O)cn1 (centres unmarked) [CBK305182],94
10,COC(=O)c1ncn(CC(=O)N2CCCCCC2)n1 [CBK305184],98.9
11,O=C(Cn1nc2n(c1=O)CCCCC2)NCC(O)c1ccc(F)cc1 (centres unmarked) [CBK305187],95.6
12,CC(C)c1ccsc1C(=O)N1CCC2(C1)NC(=O)NC2=O (centres unmarked) [CBK305188],87.1
13,c1csc(N2CCCN(c3nccn4cnnc34)CC2)n1 [CBK305190],82.4
14,CC(C)Oc1ncc(C(=O)NCCCC(=O)O)cc1Cl [CBK305192],107
15,Cn1ncc2c1CCCC2NC(=O)NCc1ccc(C#N)cc1F (centres unmarked) [CBK305193],85.4
16,Cc1nn(C)c(C)c1CCC(=O)NCC(C)Oc1ccccc1F (centres unmarked) [CBK305194],94.3
17,CC(=O)Nc1ccc(Cc2nc(C3CC3)no2)cc1 [CBK305197],92.1
18,O=C(NCC1(O)CCSCC1)c1cc2ccccc2[nH]1 [CBK305199],94.9
19,CCn1ncc2c1CCCC2NC1CCN(c2ccc(C#N)cc2)C1=O (centres unmarked) [CBK305200],96.8
20,CC(C)c1noc(C(C)N2CCN(Cc3noc(C(C)(C)C)n3)CC2)n1 (centres unmarked) [CBK305202],84.4
21,CC(C)(C)c1n[nH]c(C2CN(C(=O)CCc3cscn3)CCO2)n1 (centres unmarked) [CBK305205],89.7
22,CCN(CC)C1CCN(C(=O)Nc2cc(NC(C)=O)ccc2F)C1 (centres unmarked) [CBK305207],88.7
23,Cc1noc(CN2CCN(CCc3ccc4c(c3)CCO4)CC2)n1 [CBK305208],102

row,SMILES,"viability at 28.5 h, 10 µM [%]"
1,O=C1NC2(CCC2)C(=O)N1Cc1coc(-c2cccs2)n1 [CBK305209],95.9
2,Cc1cc(F)ccc1S(=O)(=O)NCC1CC(=O)Nc2ccccc21 (centres unmarked) [CBK305210],86.5
3,O=C(NCC1(O)CCSCC1)c1ccc2ccccc2n1 [CBK305211],85
4,Cc1nc(S(=O)(=O)CCn2cccn2)n(C2CCCCC2)c1C [CBK305217],102
5,CCCC(=O)Nc1ccc(OCc2ncc(C(C)(C)C)o2)c(C(C)=O)c1 [CBK305218],86.2
6,Cn1cc(C(O)CNC(=O)NCCc2csc3ccccc23)cn1 (centres unmarked) [CBK305219],95.2
7,CCN(CC(=O)NCc1ccc(F)cc1)C(=O)c1cc(C#N)c[nH]1 [CBK305221],87.9
8,CC(C)c1n[nH]c(C2CN(Cc3nc4c(F)cccc4[nH]3)CCO2)n1 (centres unmarked) [CBK305225],98.8
9,CN(CC1CC1)C(=O)Cn1cnc2c(F)cc(Br)cc2c1=O [CBK305227],87.2
10,O=C(Cn1cnc2c(F)cc(Br)cc2c1=O)N1CCOC2CCCCC21 (centres unmarked) [CBK305229],89.2
11,CC(NC(=O)N1CCSCC1)c1cccc(N2CCCC2)c1 (centres unmarked) [CBK305230],92
12,Cc1cccn2c(=O)cc(CN3CCn4c(nnc4C4CC4)C3)nc12 [CBK305232],102
13,N#Cc1ccc(Cn2cnc(NC(=O)c3cnccn3)n2)cc1 [CBK305233],88.5
14,CC(C)c1cccc(-n2cc(O)c(C(=O)NCCC(=O)N(C)C)n2)c1 [CBK305234],86.5
15,CCNC(=O)C1(NC(=O)c2cn3ccccc3n2)CCCCC1 [CBK305240],102
16,O=C(NCc1cc(Br)ccc1F)C1CC(=O)N(Cc2ccccn2)C1 (centres unmarked) [CBK305242],85.7
17,Cc1cc(C(=O)N2CCCC2c2ccc[nH]2)c2c(C)noc2n1 (centres unmarked) [CBK305245],91.5
18,O=C(Nc1ncccc1O)c1cnc2c(cnn2C2CCCC2)c1 [CBK305246],99.9
19,CCOC(=O)C(CNC(=O)c1cnc(C)c(Br)c1Cl)Cc1ccccc1 (centres unmarked) [CBK305247],99.6
20,Cc1nc(CC(=O)Nc2ccc(N3CCOCC3)cn2)cs1 [CBK305251],91
21,CS(=O)(=O)NC1CCN(C2CCc3c(Cl)cccc32)CC1 (centres unmarked) [CBK305252],93.7
22,Cc1cc(C)n(-c2ccc(N3CCC4(CC3)OCCO4)nn2)n1 [CBK305255],97.8
23,O=C(NCCCN1CCc2ccccc2C1)C1CC1c1ccco1 (centres unmarked) [CBK305257],91.8

row,SMILES,"viability at 28.5 h, 10 µM [%]"
1,CC(NC(=O)CCc1cscn1)c1nc(-c2ccncc2)cs1 (centres unmarked) [CBK305260],77.6
2,Cc1ccc(N2CCCN(C(=O)COc3ccccc3F)CC2)nn1 [CBK305261],99.4
3,Cc1ccn(-c2ccc(N3CCOC4(CCCC4)C3)nn2)n1 [CBK305262],87.9
4,CC(C)(C)OC(=O)N1CCCN(Cc2nnc(-c3ccco3)o2)CC1 [CBK305271],103
5,Cc1cc(C)n2nc(CCCOC(=O)c3ccn(C(C)C)n3)nc2n1 [CBK305272],112
6,CC(=O)NC(Cc1c[nH]c2ccccc12)C(=O)N(C)Cc1cnn(C)c1 (centres unmarked) [CBK305274],84.3
7,CCN(CCO)C(=O)NC1CCCc2c1cnn2Cc1ccccc1 (centres unmarked) [CBK305277],91.5
8,Cn1ncnc1CNc1ccc(S(=O)(=O)N2CCCCCC2)cc1 [CBK305278],90.1
9,O=C(NCCc1ccccn1)N1CCCN(Cc2cccs2)CC1 [CBK305283],80.5
10,Cc1nc(CC(=O)OC(C)C(=O)N2CCCc3ccccc32)cs1 (centres unmarked) [CBK305285],91.6
11,COCCn1cc(C(=O)N2CCCC2c2ccncc2)c2ccccc21 (centres unmarked) [CBK305286],91.8
12,COCCn1cc(C(=O)N2CCN3CCCCC3C2)c2ccccc21 (centres unmarked) [CBK305287],107
13,CCN(CC(C)C#N)C(=O)c1nnn(-c2ccc3ncccc3c2)c1C (centres unmarked) [CBK305292],86.3
14,CCCc1cc(C(=O)N2CCCN(Cc3cnn(CC)c3)CC2)[nH]n1 [CBK305293],92.3
15,O=C(c1cccs1)N1CCCN(Cc2cn3ccccc3n2)CC1 [CBK305304],102
16,CN(Cc1nnc(C2CC2)n1C)C1CCN(CCCc2cn[nH]c2)C1 (centres unmarked) [CBK305305],85.2
17,Cc1ccccc1Nc1nc(N)nc(CN(CCC#N)CC2CCC2)n1 [CBK305308],89.3
18,CC(C)(C)OC(=O)N1CCCN(Cc2nc(-c3cccnc3)no2)CC1 [CBK305309],97.2
19,CC(c1ccc(F)c(F)c1)N(C)C(=O)Cn1cnnc1[S+](C)[O-] (centres unmarked) [CBK305311],105
20,CC(C)NC(=O)Nc1ccc(C(=O)N(CCC#N)C(C)C2CC2)cc1 (centres unmarked) [CBK305312],110
21,Cc1cc(C)c(C(=O)N2CCN(CCNC(=O)C3CCCC3)CC2)[nH]1 [CBK305315],89.5
22,CCn1ncc2c1CCCC2NC1CCCN(c2cnn(C)c2)C1=O (centres unmarked) [CBK305316],88.7
23,Cc1nc(C2CN(Cc3c(Cl)ccc4cccnc34)CCO2)no1 (centres unmarked) [CBK305317],82

row,SMILES,"viability at 28.5 h, 10 µM [%]"
1,CC(C(=O)NCCC1=CCCCC1)N1CCOC(Cn2cccn2)C1 (centres unmarked) [CBK305319],101
2,CCN(CC)CCN(C(=O)c1cnn(C)c1C)C1CCS(=O)(=O)C1 (centres unmarked) [CBK305321],89.1
3,CSC1CCC(N(C)C(=O)NCCc2cn3cccc(C)c3n2)C1 (centres unmarked) [CBK305324],84.5
4,CC(C)N(Cc1cnn(C)c1)C(=O)c1cc(C2CC2)nc2ccccc12 [CBK305325],103
5,CCc1nc(CN(C)C2CCN(CC(=O)NCc3ccco3)C2)no1 (centres unmarked) [CBK305328],111
6,CC(C)c1nc(CC(=O)N2CCOC(c3ccc(F)cc3)C2)cs1 (centres unmarked) [CBK305334],93.9
7,CN(C(=O)CN1CCOC(Cn2cccn2)C1)C1(C#N)CCCCC1 (centres unmarked) [CBK305335],97.3
8,CC(C(=O)NC1(C#N)CCCCC1)N1CCOC(Cn2cccn2)C1 (centres unmarked) [CBK305337],88.9
9,COCCn1nc(C(=O)N(C)Cc2nc3ccccc3s2)ccc1=O [CBK305338],91.8
10,Cc1cc(C)n(CC(C)CNC(=O)Cc2csc(C(C)(C)C)n2)n1 (centres unmarked) [CBK305340],96.1
11,Cc1csc(N2CCN(C(=O)CCc3nc(C(C)C)no3)CC2)n1 [CBK305341],99.4
12,Cc1cc(C)n(CC(C)NC(=O)N2CCC(Oc3cccnc3)C2)n1 (centres unmarked) [CBK305342],92.1
13,Cc1cc(C)n(CC2CN(CC(=O)NCc3ccccn3)CCO2)n1 (centres unmarked) [CBK305344],107
14,Cn1cc(CN2CCCN(C(=O)CCCc3ccccn3)CC2)cn1 [CBK305347],87.3
15,Cc1nnnn1-c1cc(NC(=O)NCCCn2ccnc2)ccc1F [CBK305349],92.1
16,CCN(CC)C(=O)c1cccc(NC(=O)Cc2cn3ccsc3n2)c1 [CBK305353],85.6
17,CN(Cc1ccc(O)cc1)C(=O)NC1CCCc2c1cnn2CCO (centres unmarked) [CBK305354],86.3
18,Cc1ccc(OCc2nc(C)c(C(=O)N3CCCC(C)C3)s2)cc1 (centres unmarked) [CBK305356],94.3
19,CCc1cnc(CN(C)C2CCN(Cc3cccc(C(N)=O)c3)C2)o1 (centres unmarked) [CBK305357],90.5
20,CC(C(=O)NC1(C#N)CCCCC1)N1CCOC(Cn2cncn2)C1 (centres unmarked) [CBK305359],101
21,CC(C)c1cccc(-n2cc(O)c(C(=O)NCCCn3cccn3)n2)c1 [CBK305360],113
22,NC(=O)c1cc(C2CCCN(CC(=O)NCc3cccs3)C2)n[nH]1 (centres unmarked) [CBK305361],86.6

# Same assay, conditions: human, hela cells, % viability, bulk resorufin, single well
row,SMILES,"viability at 28.5 h, 10 µM [%]"
1,CCC(NC(=O)c1cn(CCOC)c2ccccc12)c1ccncc1 (centres unmarked) [CBK305186],95.7
